From ChEMBL document CHEMBL1201862, “PubChem BioAssay data set” (2004)
Structures can show the parent of a compound that is named as a salt.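 Dose response: 5 concentrations. Exposure: 48 h. Format: 96-well plates. Endpoint: linear interpolation; highest concentration if not reached. GI50 is the concentration that inhibits growth by half.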 The source made the active and inactive calls. Rule as the data show it: active = GI50 up to about 1.1 µM and inactive = higher.

Columns and labels:
Assay in all cases: NCI tumour cell line growth inhibition, 48 h
HL-60 = system: HL-60
Malme-3M = system: Malme-3M
SK-MEL-28 = system: SK-MEL-28
RPMI-8226 = system: RPMI-8226
A549 = system: A549
SF-295 = system: SF-295
SK-OV-3 = system: SK-OV-3
LOX IMVI = system: LOX IMVI
HCT-15 = system: HCT-15
SK-MEL-5 = system: SK-MEL-5
UO-31 = system: UO-31
786-0 = system: 786-0
CAKI-1 = system: CAKI-1
NCI/ADR-RES = system: NCI/ADR-RES
COLO 205 = system: COLO 205
NCI-H226 = system: NCI-H226
NCI-H460 = system: NCI-H460
SK-MEL-2 = system: SK-MEL-2
Hs-578T = system: Hs-578T

| SMILES | GI50 (HL-60) | GI50 (Malme-3M) | GI50 (SK-MEL-28) | GI50 (RPMI-8226) | GI50 (A549) | GI50 (SF-295) | GI50 (SK-OV-3) | GI50 (LOX IMVI) | GI50 (HCT-15) [µM] | GI50 (SK-MEL-5) | GI50 (UO-31) | GI50 (786-0) | GI50 (CAKI-1) | GI50 (NCI/ADR-RES) | GI50 (COLO 205) | GI50 (NCI-H226) | GI50 (NCI-H460) | GI50 (SK-MEL-2) | GI50 (Hs-578T) |
| --- | --- | --- | --- | --- | --- | --- | --- | --- | --- | --- | --- | --- | --- | --- | --- | --- | --- | --- | --- |
| CN1CN(c2ccccc2)C2(CCN(Cc3csc4ccccc34)CC2)C1=O | 4.39 µM (inactive) | 17.2 µM (inactive) | 22.1 µM (inactive) | 2.16 µM (inactive) | 18.6 µM (inactive) | 11.8 µM (inactive) | 38.2 µM (inactive) | 11.8 µM (inactive) | 14.5 | 7.78 µM (inactive) | 3.71 µM (inactive) | 19.4 µM (inactive) | 7.45 µM (inactive) | 8.97 µM (inactive) | 11.1 µM (inactive) | 21 µM (inactive) |  |  |  |
| Nc1nc(O)c2c(n1)NCN(CCCN1CCOCC1)C2 |  | > 100 µM (inactive) | > 100 µM (inactive) | > 100 µM (inactive) | > 100 µM (inactive) | > 100 µM (inactive) |  | > 100 µM (inactive) | > 100 | > 100 µM (inactive) | > 100 µM (inactive) | > 100 µM (inactive) | > 100 µM (inactive) | > 100 µM (inactive) | > 100 µM (inactive) | > 100 µM (inactive) | > 100 µM (inactive) | > 100 µM (inactive) | > 100 µM (inactive) |
| COc1ccc(-n2sc3ncc(C)cc3c2=O)cc1 |  | 18.5 µM (inactive) | 24.2 µM (inactive) | 26.2 µM (inactive) | 20.7 µM (inactive) | 50.1 µM (inactive) | 39.8 µM (inactive) | > 10 µM (inactive) | 18.4 | 13.2 µM (inactive) | 17.6 µM (inactive) | 17.3 µM (inactive) |  | 26.5 µM (inactive) | 16.1 µM (inactive) | 26.2 µM (inactive) | 86.3 µM (inactive) | 21.8 µM (inactive) | 30.6 µM (inactive) |
| O=C(C#Cc1ccccc1)Nc1ccccc1CC(c1c[nH]c2ccccc12)c1c[nH]c2ccccc12 |  | 25.6 µM (inactive) | 15.5 µM (inactive) | 3.52 µM (inactive) | 23.2 µM (inactive) | 9.46 µM (inactive) | 33.2 µM (inactive) | 7.43 µM (inactive) | 7.5 | 17.9 µM (inactive) | 13.5 µM (inactive) | 9.53 µM (inactive) | 16.9 µM (inactive) |  | 18.2 µM (inactive) | 16.6 µM (inactive) |  | 18.3 µM (inactive) |  |
| O=C(c1cccc2ccccc12)C1(Br)S(=O)(=O)OCCOS1(=O)=O | > 100 µM (inactive) | > 100 µM (inactive) | > 100 µM (inactive) | > 100 µM (inactive) | > 100 µM (inactive) | > 100 µM (inactive) |  | > 100 µM (inactive) | > 100 | > 100 µM (inactive) | > 100 µM (inactive) | > 100 µM (inactive) | > 100 µM (inactive) | > 100 µM (inactive) | > 100 µM (inactive) |  | > 100 µM (inactive) | > 100 µM (inactive) |  |
| COC(=O)CNC(=O)CNC(=O)CSc1nnc(COc2ccc(Cl)cc2)n1-c1ccccc1 |  | 18.7 µM (inactive) | 25.1 µM (inactive) | 29.4 µM (inactive) | > 100 µM (inactive) | > 100 µM (inactive) |  | 23.2 µM (inactive) | > 100 | 22.4 µM (inactive) | 21.4 µM (inactive) | > 100 µM (inactive) | 17.6 µM (inactive) | > 100 µM (inactive) | > 100 µM (inactive) | > 100 µM (inactive) | 62.8 µM (inactive) | 19.4 µM (inactive) | 23.2 µM (inactive) |
| CC(=O)c1cccc(Nc2nc3ccccc3c3[nH]c4ccccc4c23)c1 |  | 3.61 µM (inactive) |  | 3.03 µM (inactive) | 2.78 µM (inactive) | 3.53 µM (inactive) | 5.42 µM (inactive) |  | 3.94 |  | 3.33 µM (inactive) | 3.01 µM (inactive) | 3.8 µM (inactive) | 4.05 µM (inactive) | 2.23 µM (inactive) |  | 1.7 µM (inactive) | 3.75 µM (inactive) | 10.9 µM (inactive) |
| CC(=O)OC1CCN(C(=O)c2ccccc2)CC1CC1(c2cc3ccccc3[nH]2)OCCO1 (configuration not stated) | 24.2 µM (inactive) | > 100 µM (inactive) | > 100 µM (inactive) | 22.3 µM (inactive) | 50.1 µM (inactive) | 68.5 µM (inactive) | > 100 µM (inactive) | 83.2 µM (inactive) | 48.3 | 44 µM (inactive) | 29 µM (inactive) | > 100 µM (inactive) | > 100 µM (inactive) | 51.6 µM (inactive) | 53.1 µM (inactive) | > 100 µM (inactive) |  | > 100 µM (inactive) |  |
| CC12CCC([C@H](Nc3cc(C(F)(F)F)cc(C(F)(F)F)c3)C1=O)C2(C)C (some centres not stated) |  | > 100 µM (inactive) | > 100 µM (inactive) | 0.158 µM (active) | > 100 µM (inactive) | 37.4 µM (inactive) | > 100 µM (inactive) | > 100 µM (inactive) | > 100 | > 100 µM (inactive) | > 100 µM (inactive) | > 100 µM (inactive) | > 100 µM (inactive) | > 100 µM (inactive) | > 100 µM (inactive) | > 100 µM (inactive) |  | > 100 µM (inactive) |  |
| CCOP(=O)(Cc1nc(C#N)c(N)o1)OCC | > 100 µM (inactive) | > 100 µM (inactive) | > 100 µM (inactive) | > 100 µM (inactive) |  | > 100 µM (inactive) | > 100 µM (inactive) | > 100 µM (inactive) | > 100 | > 100 µM (inactive) |  | > 100 µM (inactive) | > 100 µM (inactive) |  | > 100 µM (inactive) | > 100 µM (inactive) | > 100 µM (inactive) | > 100 µM (inactive) | > 100 µM (inactive) |
| Cc1cn(C2CC(O)C(CO[Si](C)(C)C(C)(C)C)OC2OC(C)C)c(=O)[nH]c1=O (configuration not stated) |  | 44.5 µM (inactive) | 41 µM (inactive) | 37.7 µM (inactive) | 34.1 µM (inactive) | 65 µM (inactive) |  | 18.5 µM (inactive) | 58.5 | 32.7 µM (inactive) | 44.8 µM (inactive) | 16.6 µM (inactive) | 55.2 µM (inactive) | 43.1 µM (inactive) | 21.5 µM (inactive) | 41.9 µM (inactive) | 31.6 µM (inactive) | 36 µM (inactive) | 67.3 µM (inactive) |
| Clc1ccc(Nc2nn3c(CCCCCCCCc4nnc5sc(Nc6ccc(Cl)cc6)nn45)nnc3s2)cc1 |  | > 100 µM (inactive) | > 100 µM (inactive) | > 100 µM (inactive) | > 100 µM (inactive) | 36 µM (inactive) | > 100 µM (inactive) | > 100 µM (inactive) | > 100 | > 100 µM (inactive) | > 100 µM (inactive) | 51.6 µM (inactive) | > 100 µM (inactive) | > 100 µM (inactive) | > 100 µM (inactive) | > 100 µM (inactive) | > 100 µM (inactive) | > 100 µM (inactive) | > 100 µM (inactive) |
| CCN1CCN(c2nc3ccc([N+](=O)[O-])cc3nc2C(=O)c2ccccc2)CC1 | 26.2 µM (inactive) | 13.1 µM (inactive) |  | 12.8 µM (inactive) | 17.6 µM (inactive) | 16.7 µM (inactive) | 14.8 µM (inactive) | 4.98 µM (inactive) | 12 |  | 12.6 µM (inactive) | 18.7 µM (inactive) | 16.7 µM (inactive) | 14.8 µM (inactive) | 16.2 µM (inactive) | 11.8 µM (inactive) | 21.8 µM (inactive) | 15.8 µM (inactive) |  |
| CC(C)C(C/C=C1/CC(CO)(COC(=O)C2CCCCC2)OC1=O)C(C)C (configuration not stated) |  | 17.3 µM (inactive) | 18.6 µM (inactive) |  | 12.5 µM (inactive) | 14.2 µM (inactive) | > 100 µM (inactive) | 14.2 µM (inactive) | 21.6 | 18.3 µM (inactive) | 17.7 µM (inactive) | 12.4 µM (inactive) | 15.2 µM (inactive) | 21.3 µM (inactive) | 5.94 µM (inactive) | 21.4 µM (inactive) | 20.2 µM (inactive) | > 100 µM (inactive) | 16.7 µM (inactive) |
| CC(C)=CCC[C@](C)(O[C@@H]1O[C@H](CO)[C@@H](O)[C@H](O)[C@H]1O)[C@H]1CC[C@]2(C)[C@@H]1[C@H](O)C[C@@H]1[C@@]3(C)CC[C@@H](O)C(C)(C)[C@@H]3[C@@H](O[C@@H]3O[C@H](CO)[C@@H](O)[C@H](O)[C@H]3O)C[C@]12C.C[C@@H]1O[C@@H](O[C@H]2[C@H](O[C@H]3C[C@]4(C)[C@H](C[C@H](O)[C@@H]5[C@@H]([C@@]6(C)CC[C@H](C(C)(C)O)O6)CC[C@]54C)[C@@]4(C)CC[C@H](O)C(C)(C)[C@H]34)O[C@H](CO)[C@@H](O)[C@@H]2O)[C@H](O)[C@H](O)[C@H]1O | > 100 µM (inactive) |  | > 100 µM (inactive) | > 100 µM (inactive) | > 100 µM (inactive) | > 100 µM (inactive) | > 100 µM (inactive) | > 100 µM (inactive) | > 100 | > 100 µM (inactive) | > 100 µM (inactive) | > 100 µM (inactive) | > 100 µM (inactive) |  | > 100 µM (inactive) | > 100 µM (inactive) | > 100 µM (inactive) | > 100 µM (inactive) | > 100 µM (inactive) |
| CN1[C@@H]2C[C@@H](OC(=O)[C@H](CO)c3ccccc3)C[C@H]1[C@@H]1O[C@@H]12 [SCOPOLAMINE HYDROBROMIDE] |  | > 100 µM (inactive) | > 100 µM (inactive) | > 100 µM (inactive) | > 100 µM (inactive) |  | > 100 µM (inactive) | > 100 µM (inactive) | > 100 | > 100 µM (inactive) | > 100 µM (inactive) | > 100 µM (inactive) | > 100 µM (inactive) | > 100 µM (inactive) | > 100 µM (inactive) | > 100 µM (inactive) |  | > 100 µM (inactive) | > 100 µM (inactive) |
